# Measured values from paper PMC8980233, “Differentiating the Neuropharmacological Properties of Nicotinic Acetylcholine Receptor-Activating Alkaloids” (Frontiers in Pharmacology, 2022).
# Key:
# [1] = tested on: C57Bl/6 mice; assay: SmartCube behavioral profiling; format: in vivo; settings: single i.p. injection
# Source text: The SmartCube^ ® system is a unique mouse behavior profiling system developed by PsychoGenics Inc. It extracts over 2000 spontaneous and challenge-induced behavioral features during a session ([Alexandrov et al., 2015]; [Alexandrov et al., 2016]). The recorded behavioral parameters are then compared against the behavioral profiles of marketed reference compounds in the database, and the test compounds are classified into known drug classes using PsychoGenics’ proprietary bioinformatics algorithms. In brief, mice were i. p. injected with vehicle or test compound at 10 ml/kg body weight and placed in the SmartCube^ ® arena (24 cm × 25 cm) 15 min later. Spontaneous and stimulus-induced behaviors of mice were recorded using force sensors distributed throughout the arena during a 45-min test session. In addition, three high-resolution video cameras provided a constant 3-dimensional (3D) view of the mouse behavior in the SmartCube^ ® arena throughout the testing period. The bedding was vacuumed, and the arena was cleaned with NOLVASAN^ ® solution between each run. Data from the SmartCube^ ® test were processed using PsychoGenics’ proprietary Computer Vision feature extraction, Bayesian probabilistic density models, and data mining algorithms, trained on a large library of reference compounds with known therapeutic indications to predict the underlying class of each test compound ([Alexandrov et al., 2015]; [Alexandrov et al., 2016]). Twelve mice were tested per condition. Mice were terminated after the completion of the SmartCube^ ® test.
# The doses were calculated based on the free base molecular weight. The doses were selected based on the tolerability test results.
# [2] = tested on: C57Bl/6 mice; assay: Tolerability test (body weight, body temperature, passive signs, manipulation responses); settings: for BT (°C) naïve / Manipulations naïve / Passive naïve: baseline; for BW Day 1 / BW Day 2: mean ± SD
# Protocol: In brief, mice were single-housed prior to the test and evaluated for baseline body weight, body temperature, and other parameters. […] On day 1, the mice were i. p. injected with saline (vehicle) or a test compound at 10 ml/kg body weight. Then, body temperature was measured at 15 min, 4 h, and 24 h and body weight on days 1 and 2. Neurological and motor parameters were evaluated at 15 min, 2 h, and 4 h after administration. The list of parameters is provided in Supplementary Figure S1 in Supplementary Material S1.
# In addition, within 5 min after the 15-min observation period, mice were placed in open-field chambers for 30 min to determine their general motor activity (distance traveled), ambulatory time, and number of rears. The open-field chambers were made of Plexiglas (27.3 × 27.3 × 20.3 cm; Med Associates Inc, St Albans, VT, United States) surrounded by infrared photobeam sources (16 × 16 × 16 beams). Horizontal activity (distance and time traveled) and vertical activity (number and frequency of rears) were measured by consecutive beam breaks. At the end of each open-field test session, the chambers were thoroughly cleaned with NOLVASAN® solution (Zoetis Services LLC, Parsippany, NJ, United States). Four mice were used per treatment condition. Mice were terminated after completion of the last tolerability observation.
# All compounds were diluted in saline, and the pH was adjusted to approximately 7.0 with HCl or NaOH on the day of the experiment. […] The doses were calculated based on the free base molecular weight of the compounds.
# For the tolerability tests, passive signs and manipulation responses were analyzed for effects of the treatment by the Kruskal–Wallis test. Body temperature and body weight data were analyzed by two-way repeated measures analysis of variance (ANOVA). The total distance and time traveled and number and frequency of rears in the open-field activity test were analyzed by one-way ANOVA, followed by the Tukey post-hoc test. For the analyses of the zebrafish NTT data, one-way ANOVA was used, followed by Dunnett’s multiple comparison test, if it passed the Shapiro-Wilk normality test. […] An effect was considered significant if p < 0.05. The half maximal effective concentration (EC50) and half-maximal inhibitory concentration (IC50) for the receptor pharmacology and neurotransmitter release assay were determined by using nonlinear regression analysis. Statistical analyses were conducted using GraphPad Prism.
compound,measurement,setting,value
"CN1CCC[C@H]1c1cccnc1 [Nicotine, (-)-Nicotine]",SmartCube drug classification / behavioral features,[1]; highest dose 0.5 mg/kg body weight,anxiolytic-like behavior features
same,BT (°C) naïve,[2]; 0.25 mg/kg group,37.83 ± 0.15 °C
same,Manipulations naïve,[2]; 0.25 mg/kg group,0.00 ± 0.00
same,Passive naïve,[2]; 0.25 mg/kg group,0.00 ± 0.00
same,BT (°C) 15min,[2]; 0.25 mg/kg i.p.,37.48 ± 0.98 °C
same,BT (°C) 4hr,[2]; 0.25 mg/kg i.p.,36.88 ± 0.97 °C
same,BT (°C) 24hr,[2]; 0.25 mg/kg i.p.,36.43 ± 0.87 °C
same,Manipulations 15min,[2]; 0.25 mg/kg i.p.,0.00 ± 0.00
same,Manipulations 2hr,[2]; 0.25 mg/kg i.p.,0.00 ± 0.00
same,Manipulations 4hr,[2]; 0.25 mg/kg i.p.,0.00 ± 0.00
same,Passive 15min,[2]; 0.25 mg/kg i.p.,0.00 ± 0.00
same,Passive 2hr,[2]; 0.25 mg/kg i.p.,0.00 ± 0.00
same,Passive 4hr,[2]; 0.25 mg/kg i.p.,0.00 ± 0.00
same,BW Day 1,[2]; 0.25 mg/kg i.p.,24.54 ± 0.97
same,BW Day 2,[2]; 0.25 mg/kg i.p.,24.33 ± 0.99
same,BT (°C) naïve,[2]; 0.5 mg/kg group,37.93 ± 0.17 °C
same,Manipulations naïve,[2]; 0.5 mg/kg group,0.00 ± 0.00
same,Passive naïve,[2]; 0.5 mg/kg group,0.00 ± 0.00
same,BT (°C) 15min,[2]; 0.5 mg/kg i.p.,36.48 ± 0.90 °C
same,BT (°C) 4hr,[2]; 0.5 mg/kg i.p.,36.50 ± 0.44 °C
same,BT (°C) 24hr,[2]; 0.5 mg/kg i.p.,36.65 ± 0.41 °C
same,Manipulations 15min,[2]; 0.5 mg/kg i.p.,0.00 ± 0.00
same,Manipulations 2hr,[2]; 0.5 mg/kg i.p.,0.00 ± 0.00
same,Manipulations 4hr,[2]; 0.5 mg/kg i.p.,0.00 ± 0.00
same,Passive 15min,[2]; 0.5 mg/kg i.p.,0.00 ± 0.00
same,Passive 2hr,[2]; 0.5 mg/kg i.p.,0.00 ± 0.00
same,Passive 4hr,[2]; 0.5 mg/kg i.p.,0.00 ± 0.00
same,BW Day 1,[2]; 0.5 mg/kg i.p.,24.58 ± 0.93
same,BW Day 2,[2]; 0.5 mg/kg i.p.,24.76 ± 1.20
same,BT (°C) naïve,[2]; 1 mg/kg group,37.90 ± 0.16 °C
same,Manipulations naïve,[2]; 1 mg/kg group,0.00 ± 0.00
same,Passive naïve,[2]; 1 mg/kg group,0.00 ± 0.00
same,BT (°C) 15min,[2]; 1 mg/kg i.p.,33.53 ± 0.85 °C
same,BT (°C) 4hr,[2]; 1 mg/kg i.p.,36.55 ± 0.48 °C
same,BT (°C) 24hr,[2]; 1 mg/kg i.p.,36.53 ± 0.31 °C
same,Manipulations 15min,[2]; 1 mg/kg i.p.,0.00 ± 0.00
same,Manipulations 2hr,[2]; 1 mg/kg i.p.,0.00 ± 0.00
same,Manipulations 4hr,[2]; 1 mg/kg i.p.,0.00 ± 0.00
same,Passive 15min,[2]; 1 mg/kg i.p.,0.00 ± 0.00
same,Passive 2hr,[2]; 1 mg/kg i.p.,0.00 ± 0.00
same,Passive 4hr,[2]; 1 mg/kg i.p.,0.00 ± 0.00
same,body temperature 15 min after the injection,[2]; 1 mg/kg i.p.,decreased the body temperature
same,BW Day 1,[2]; 1 mg/kg i.p.,24.55 ± 0.94
same,BW Day 2,[2]; 1 mg/kg i.p.,24.10 ± 0.61
"C1=CCC(c2cccnc2)NC1 (racemic) [Anatabine, (±)-Anatabine]",SmartCube drug classification / behavioral features,[1]; all doses tested,no detectable effect
same,BT (°C) naïve,[2]; 1 mg/kg group,37.95 ± 0.13 °C
same,Manipulations naïve,[2]; 1 mg/kg group,0.00 ± 0.00
same,Passive naïve,[2]; 1 mg/kg group,0.00 ± 0.00
same,BT (°C) 15min,[2]; 1 mg/kg i.p.,36.98 ± 0.41 °C
same,BT (°C) 4hr,[2]; 1 mg/kg i.p.,36.65 ± 0.33 °C
same,BT (°C) 24hr,[2]; 1 mg/kg i.p.,36.88 ± 0.43 °C
same,Manipulations 15min,[2]; 1 mg/kg i.p.,0.00 ± 0.00
same,Manipulations 2hr,[2]; 1 mg/kg i.p.,0.00 ± 0.00
same,Manipulations 4hr,[2]; 1 mg/kg i.p.,0.00 ± 0.00
same,Passive 15min,[2]; 1 mg/kg i.p.,0.00 ± 0.00
same,Passive 2hr,[2]; 1 mg/kg i.p.,0.00 ± 0.00
same,Passive 4hr,[2]; 1 mg/kg i.p.,0.00 ± 0.00
same,BW Day 1,[2]; 1 mg/kg i.p.,24.46 ± 2.30
same,BW Day 2,[2]; 1 mg/kg i.p.,24.64 ± 2.56
same,BT (°C) naïve,[2]; 2 mg/kg group,37.83 ± 0.15 °C
same,Manipulations naïve,[2]; 2 mg/kg group,0.00 ± 0.00
same,Passive naïve,[2]; 2 mg/kg group,0.00 ± 0.00
same,BT (°C) 15min,[2]; 2 mg/kg i.p.,35.28 ± 0.49 °C
same,BT (°C) 4hr,[2]; 2 mg/kg i.p.,36.48 ± 0.49 °C
same,BT (°C) 24hr,[2]; 2 mg/kg i.p.,36.45 ± 0.30 °C
same,Manipulations 15min,[2]; 2 mg/kg i.p.,0.00 ± 0.00
same,Manipulations 2hr,[2]; 2 mg/kg i.p.,0.00 ± 0.00
same,Manipulations 4hr,[2]; 2 mg/kg i.p.,0.00 ± 0.00
same,Passive 15min,[2]; 2 mg/kg i.p.,0.00 ± 0.00
same,Passive 2hr,[2]; 2 mg/kg i.p.,0.00 ± 0.00
same,Passive 4hr,[2]; 2 mg/kg i.p.,0.00 ± 0.00
same,BW Day 1,[2]; 2 mg/kg i.p.,24.64 ± 1.69
same,BW Day 2,[2]; 2 mg/kg i.p.,24.89 ± 2.21
same,BT (°C) naïve,[2]; 4 mg/kg group,38.08 ± 0.05 °C
same,Manipulations naïve,[2]; 4 mg/kg group,0.00 ± 0.00
same,Passive naïve,[2]; 4 mg/kg group,0.00 ± 0.00
same,BT (°C) 15min,[2]; 4 mg/kg i.p.,33.92 ± 0.30 °C
same,BT (°C) 4hr,[2]; 4 mg/kg i.p.,36.30 ± 0.40 °C
same,BT (°C) 24hr,[2]; 4 mg/kg i.p.,36.63 ± 0.17 °C
same,Manipulations 15min,[2]; 4 mg/kg i.p.,0.00 ± 0.00
same,Manipulations 2hr,[2]; 4 mg/kg i.p.,0.00 ± 0.00
same,Manipulations 4hr,[2]; 4 mg/kg i.p.,0.00 ± 0.00
same,Passive 15min,[2]; 4 mg/kg i.p.,0.00 ± 0.00
same,Passive 2hr,[2]; 4 mg/kg i.p.,0.00 ± 0.00
same,Passive 4hr,[2]; 4 mg/kg i.p.,0.00 ± 0.00
same,body temperature 15 min after the injection,[2]; 4 mg/kg i.p.,decreased the body temperature
same,BW Day 1,[2]; 4 mg/kg i.p.,24.73 ± 1.23
same,BW Day 2,[2]; 4 mg/kg i.p.,24.43 ± 1.13
"CN1C(=O)CC[C@H]1c1cccnc1 [Cotinine, (-)-cotinine]",SmartCube drug classification / behavioral features,[1]; all doses tested,no detectable effect
same,tolerability,"[2]; mouse, in vivo, ip, 10 mg/kg",well tolerated
